Experimental data taken from US5877202A, “Indole derivatives useful to treat estrogen-related neoplasms and disorders” (priority 1996, dated 1999).
pIC50: −log10 of the molar value.

Experiments:
[1] = test system: MCF-7 tumors; assay: Inhibition of growth of MCF-7 tumors implanted in nu/nu mice; format: in vivo, female nu/nu mice; conditions: for tumor volume: n = 5, in mm³
[2] = target: T1, estrogen receptors (Homo sapiens, UniProt P03372); assay: Quantification of estrogen receptors in nuclear and whole cell extracts (ER-EIA monoclonal kit), Table 1; format: cell-based, human (MCF-7 human breast cancer cells); conditions: estrogen receptors in nuclear extracts
T1 construct: estrogen receptor extracted from MCF-7 human breast tumor cells; endogenous in cells; host or cells: MCF-7 human breast cancer cells (nuclear extract, cytosol or whole cell extract)
T1 sequence (P03372 1-595): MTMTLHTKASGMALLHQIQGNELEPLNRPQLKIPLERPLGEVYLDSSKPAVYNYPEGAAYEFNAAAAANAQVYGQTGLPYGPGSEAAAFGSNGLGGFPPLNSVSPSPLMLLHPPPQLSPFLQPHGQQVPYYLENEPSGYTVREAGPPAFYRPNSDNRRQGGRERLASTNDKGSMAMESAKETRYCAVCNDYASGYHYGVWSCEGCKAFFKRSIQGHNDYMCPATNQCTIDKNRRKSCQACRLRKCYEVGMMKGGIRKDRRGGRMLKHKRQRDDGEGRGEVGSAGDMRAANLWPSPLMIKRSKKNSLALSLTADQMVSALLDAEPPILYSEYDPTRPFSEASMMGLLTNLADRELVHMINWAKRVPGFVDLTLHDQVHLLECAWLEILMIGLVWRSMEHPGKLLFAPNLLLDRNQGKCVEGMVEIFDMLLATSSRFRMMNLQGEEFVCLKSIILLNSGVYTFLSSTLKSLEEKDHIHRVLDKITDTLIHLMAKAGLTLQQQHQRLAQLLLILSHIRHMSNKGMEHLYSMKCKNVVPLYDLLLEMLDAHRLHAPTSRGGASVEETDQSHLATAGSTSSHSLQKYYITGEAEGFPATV
Experimental: Monolayers of MCF-7 human breast cancer cells are rinsed once with HBSS and scraped off culture dishes into 15 ml conical tubes with 5 ml HBSS. The cells are sedimented by centrifugation at 250×g for five minutes, suspended in 1 ml HBSS and sedimented by centrifugation at 2000 rpm in a tabletop centrifuge for five minutes in a 1.5 ml microfuge tube. Two PCV of a solution of a lysis buffer (25 mM HEPES, pH 7.8, 50 mM KCl, 0.5% Nonidet P 40, 2 mM dithiothreitol, 0.2 mM phenylmethylsulfonyl fluoride, 0.05 mg/ml leupeptin, 0.05 mg/ml aprotinin, 0.0025 mg/ml pepstatin, 0.005 mg/ml antipain) are added and cells are kept on ice for 15 minutes. Lysed cells are centrifuged for 3 minutes at 10,000×g, supernatant decanted, and kept as the cytosol fraction. Pellets are suspended in two PCV of extraction buffer (25 mM HEPES, pH 7.8, 500 mM KCl, 10% glycerol, 2 mM dithiothreitol and the above protease inhibitors), mixed for 20 minutes by inversion at 4 degrees C. and centrifuged at 10,000×g for 20 minutes. The supernatant is decanted and saved as nuclear extract. Both the nuclear extract and the cytosol are dialyzed for two hours against dialysis buffer (25 mM HEPES, pH 7.8, 50 mM KCl, 10% glycerol, 2 mM dithiothreitol and the above protease inhibitors). Nuclear and cytosol fractions are stored frozen at -80 degrees C. until used for mobility shift assays or determination of estrogen receptor content.
Whole cell extracts of tumor cells are prepared by the method of Reese and Katzenellenbogen, Nuc. Acids Res., 19: 6595-6602 (1991), with some modifications. Cell monolayers are rinsed once with HBSS, then scraped into HBSS and sedimented by centrifugation (5 min., 250×g). After resuspending in 1 mL HBSS, the cells are again sedimented at 250×g for 5 min at 4° C. The cell pellet is resuspended in lysis/extract buffer containing 20 mM Tris, pH 7.5, 10% glycerol (v/v), 0.5M sodium chloride and 0.5% NP-40 (v/v) and incubated on ice for 25 minutes, then the supernatants are dialyzed against 25 mM HEPES, pH 7.8, 10% glycerol (v/v), 0.5 mM dithiothreitol and 50 mM potassium chloride for 2 hours at 4° C. Both the lysis/extraction and the dialysis buffers contain protease inhibitors which included 0.5 mM phenylmethylsulfonylfluoride, 0.05 mg/mL leupeptin, 0.05 mg/mL aprotinin, 0.00-25 mg/mL pepstatin, and 0.005 mg/mL antipain. Dialyzed whole cell extracts are stored in aliquots at -80° C. until used.
The protein concentration for nucleus and cytosol fractions are determined with a BIO-RAD kit, according to the manufacturer's instructions.
Estrogen receptor levels in nuclear and whole cell extracts of tumor cells were quanitated using the ER-EIA monoclonal kit manufactured by Abbott Laboratories (Diagnostic Division) according to the kit instructions.
receptors in nuclear extracts.
.dagger.WCE refers to IC50 value for estrogen receptors in whole cel
A slash dividing two numbers indicates the results of two separate

## CCCCN(C)C(=O)CCCCCCCNC(=O)Cc1c(C)n(C(=O)c2ccc(Cl)cc2)c2ccc(O)cc12 [MDL 101,906, 8-[[5-Hydroxy-1-(4-chlorobenzoyl)-2-methyl-1H-indol-3-yl]-acetylamino]-octanoic acid methyl-butyl-amide]
[1]; 10 mg/kg i.p., day 14 after tumor implantation
  tumor volume: 49 ± 18
[1]; 10 mg/kg i.p., day 22 after tumor implantation
  tumor volume: 111 ± 36
[1]; 10 mg/kg i.p., day 29 after tumor implantation
  tumor volume: 155 ± 43
[1]; 10 mg/kg i.p., day 36 after tumor implantation
  tumor volume: 255 ± 70
[1]; 20 mg/kg i.p., day 14 after tumor implantation
  tumor volume: 58 ± 9
[1]; 20 mg/kg i.p., day 22 after tumor implantation
  tumor volume: 140 ± 16
[1]; 20 mg/kg i.p., day 29 after tumor implantation
  tumor volume: 197 ± 30
[1]; 20 mg/kg i.p., day 36 after tumor implantation
  tumor volume: 282 ± 38
[1]; 50 mg/kg i.p., day 14 after tumor implantation
  tumor volume: 77 ± 14
[1]; 50 mg/kg i.p., day 22 after tumor implantation
  tumor volume: 143 ± 13
[1]; 50 mg/kg i.p., day 29 after tumor implantation
  tumor volume: 178 ± 53
[1]; 50 mg/kg i.p., day 36 after tumor implantation
  tumor volume: 291 ± 79
[1]; 100 mg/kg i.p., day 14 after tumor implantation
  tumor volume: 56 ± 10
[1]; 100 mg/kg i.p., day 22 after tumor implantation
  tumor volume: 81 ± 16
[1]; 100 mg/kg i.p., day 29 after tumor implantation
  tumor volume: 110 ± 24
[1]; 100 mg/kg i.p., day 36 after tumor implantation
  tumor volume: 170 ± 41
[1]; 10 to 100 mg/kg i.p.
  tumor volume over time, dose dependence: dose-dependent decrease in the tumor volume over time
[1]; highest dose (100 mg/kg), 36 days after tumor implantation
  decrease in tumor volume over control: 55%
[1]; intraperitoneal injections, suspension in 20% DMSO/water
  size of the tumors compared to control mice: reduced the size of the tumors compared to control mice
[2]
  pIC50: 4.72
[2]; second of two separate experiments (after the slash)
  pIC50: 5.07
